Results on 11 molecules are retold here after patent US20250034136A1 (Nimbus Wadjet, Inc., priority 2023, published 2025).

Like-named read-outs stand apart in the source and are kept apart here. A value given as a limit tells only on which side of the number the result lay.

The target in assay [1] is WRN (BV08), human Werner helicase (Uniprot Q14191, amino acids 517-1235 with L1074F point mutation) (Homo sapiens (Human), UniProt Q14191, L1074F). Description: WRN (BV08) ADP-Glo assay. The format is biochemical. The conditions noted are these: class symbols A-E, read-out: ADP-Glo_hWRN_IC50. On the procedure: Bovine skin gelatin (BSG), dimethyl sulfoxide (DMSO), Pluronic F-127 and tris(2-carboxyethyl)phosphine hydrochloride solution (TCEP) were purchased from Sigma-Aldrich (St. Louis, MO) at the highest level of purity possible. […] DNA strands were annealed by heating to 95° C. for 5 minutes followed by slow cooling to room temperature. Compounds in 100% DMSO (0.1 μl) were spotted into a 384-well white polystyrene Optiplate-384 (Perkin Elmer; Waltham, MA) assay plate using a LabCyte Echo 550 (Agilent; Santa Clara, CA). DMSO (0.1 μl) was added to columns 12, rows A-H and column 24, rows I-P for the maximum signal control. […] Compounds/DMSO were preincubated for 15 minutes at 25° C. with 5 μl 2×WRN (BV08), prepared as described below, in assay buffer containing 20 mM Bicine (pH=7.5), 1 mM MgCl2, 10 mM KCl, 0.1% Pluronic F-127, 0.005% BSG, 1 mM TCEP. The reaction was initiated by the addition of 5 μl 2× substrate mixture in assay buffer and incubated for 60 minutes at 25° C. The final concentrations of the assay components were 0.15 nM WRN, 5 μM ATP, and 0.1 nM DNA duplex. The final DMSO concentration was 1% and the reference compound concentration (NSC-617145) used for the minimal signal control was 20 μM. The reaction was stopped by the addition of the ADP-Glo Kit components (Promega; Madison, WI) as directed and the relative luminescence units (RLU) were read on an Envision 2104 (Perkin Elmer; Waltham, MA). % inhibition calculation:
[formula] • Where RLU=relative luminescence units, sample=signal in sample well, and MIN and MAX are the respective minimum and maximum signal controls.
[formula] • Where top and bottom are normally allowed to float but may be fixed at 100 or 0 respectively in a 3-parameter fit. Y is the % inhibition and X is the compound concentration.
Molecular Biology and virus production. […] The baculovirus from the expression plasmid WRN—BV08 was generated from transfection and amplification following the manufacturer's instructions.
Sf9 cells grown in SF900II media were infected with 1:200 WRN—BV08 P2 virus and incubated for protein expression for 72 h at 27° C. The WRN protein was purified using the following protocol. The cell pellets were thawed and resuspended in buffer A (50 mM Tris, pH 7.5, 500 mM NaCl, 1 mM TCEP, 10% Glycerol) supplemented with 0.5% CHAPS, 1 mM PMSF, 1 μg/ml Leupeptin, 1 μg/ml Pepstatin, and the Pierce Universal Nuclease and cocktail tablet. Cleared lysates were loaded onto a Ni Sepharose™ excel column and washed with buffer A and bound protein was eluted with buffer A supplemented with 300 mM imidazole. The eluted protein was dialyzed against buffer A and digested by His-tagged TEV (1:5 ratio) overnight at 4° C. ZnCl2 was added into the sample at final 15 μM before loading onto a second Ni Sepharose™ excel column. Untagged WRN protein was eluted from the column with buffer A supplemented with 20 mM imidazole, dialyzed overnight into buffer B (50 mM Tris, pH 7.5, 1 mM TCEP, 10% Glycerol) supplemented with 150 mM NaCl and loaded onto a Heparin column. Proteins were eluted with a step gradient of buffer B supplemented with 150 mM, 200 mM, 300 mM and 500 mM NaCl. WRN containing fractions were pooled and concentrated prior to loading on to size exclusion chromatography using a HiLoad 16/600 Superdex™ 200 pg column (GE Healthcare) in buffer C (20 mM HTEPES, pH 7.5, 250 mM NaCl, 0.25 mM TCEP, […]).

The subject of assay [2] is p21 induction in HCT116 cells. As to the kind of experiment: p21 induction in HCT116 cells. The format is cell-based. The conditions noted are these: HCT116 cells, 24 h compound incubation, read-out: P21_EC50. As for the experimental part: The colon carcinoma cell line HCT116 was obtained from ATCC and cultured in growth medium consisting of Mccoy's 5A Medium (Gibco 16600108) supplemented with 10% FBS (Transgene FS201-02) and 100 units/mL penicillin-streptomycin (Gibco 15140122) and maintained at 37° C. under 5% CO2. On the day of seeding, 2,000 cells in 30 μL of culture media were plated per well to Poly-D-Lysine 384 Well Black Clear Plates (Biocoat 356663) and incubated overnight at 37° C. under 5% CO2. The following day, compounds were serially diluted in DMSO for a total of 11 test concentrations. […] Next, 150 nL of diluted compound was added in duplicate to the assay plate, using an Echo 655 (Labcyte). The plate was centrifuged at 500 RPM for 1 min and then incubated at 37° C. under 5% CO2 for 24 h. After 24 h, medium was removed, and cells were fixed by adding 40 μL of 4% paraformaldehyde solution to each well and incubated for 20 min at room temperature. The plate was then washed 4 times with 100 μL per well of wash buffer (PBS with 0.1% Tween-20) using a microplate washer. Next, 30 μL of ice-cold methanol was added to each well and the plate was incubated at −20° C. for 10 min. The plate was washed 4 times with 100 μL per well of wash buffer by a microplate washer, then 30 μL per well of blocking buffer (Intercept PBS blocking buffer (LI-COR 927-70001) with 0.05% Tween-20) was added and the plate was incubated at room temperature with shaking for 2 h. Next, to each test well, 20 μL of primary antibody solution (p21 Waf1/CIP (12D1) RabbitmAb (Cell Signaling Technologies 2947) diluted 1:1000 and GAPDH (D4C6R) Mouse mAb (Cell Signaling Technologies 97166) diluted 1:2000 in blocking buffer) was added and the plate was placed at 4° C., overnight. The following day, the plate was washed 5 times with 100 μL per well of wash buffer using a microplate washer for 5 min. 20 μL per well of secondary antibody (IRDye 680CW Goat anti-Mouse IgG (H+L) (LI-COR 926-68070) diluted 1: 2000 in Blocking Buffer and IRDye 800CW Goat anti-Rabbit IgG (H+L) (LI-COR 926-32211) diluted 1: 2000 in Blocking Buffer) was then added and the plate was stored for 2 h in the dark at room temperature with shaking. The plate was then washed 4 times with 100 μL per well of wash buffer again using a microplate washer. Finally, the p21 signal and the GAPDH signal were quantified using a LI-COR Odyssey CLx Imager machine reading at 800 nm and 700 nm, respectively. Each plate contained DMSO control (low control) and an internal reference WRN inhibitor (high control) respectively. […] EC50 values for each compound were generated after non-linear regression curve fitting using commercially available software.

Chain of WRN (BV08), human Werner helicase (Uniprot Q14191, amino acids 517-1235 with L1074F point mutation) (Q14191 other isoform, or with tags, fused parts or gaps L1074F (already in the parent)): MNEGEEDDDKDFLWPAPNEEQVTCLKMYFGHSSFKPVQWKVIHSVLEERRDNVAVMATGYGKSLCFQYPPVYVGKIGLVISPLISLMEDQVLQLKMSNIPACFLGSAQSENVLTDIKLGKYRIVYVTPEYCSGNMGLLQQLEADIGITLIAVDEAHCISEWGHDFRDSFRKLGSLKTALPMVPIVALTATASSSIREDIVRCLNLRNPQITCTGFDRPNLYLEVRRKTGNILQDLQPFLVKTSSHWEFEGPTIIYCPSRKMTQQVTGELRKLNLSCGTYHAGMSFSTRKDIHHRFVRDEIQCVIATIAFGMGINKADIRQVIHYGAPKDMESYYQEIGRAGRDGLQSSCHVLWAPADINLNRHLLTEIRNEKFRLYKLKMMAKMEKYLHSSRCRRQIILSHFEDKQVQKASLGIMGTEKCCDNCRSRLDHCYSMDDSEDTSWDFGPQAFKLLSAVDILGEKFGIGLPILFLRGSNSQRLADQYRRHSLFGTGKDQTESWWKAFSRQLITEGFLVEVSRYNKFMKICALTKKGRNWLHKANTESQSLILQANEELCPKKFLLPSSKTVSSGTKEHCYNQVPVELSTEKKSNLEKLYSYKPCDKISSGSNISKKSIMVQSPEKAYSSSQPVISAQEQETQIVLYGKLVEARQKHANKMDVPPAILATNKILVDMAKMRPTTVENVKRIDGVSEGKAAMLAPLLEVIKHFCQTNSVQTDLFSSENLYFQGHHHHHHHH

For the molecule `CCc1c(N2CCN(C(=O)c3ncnc(C)c3O)[C@@H](COC)C2)c(=O)c2nc(N(C)C)cnc2n1CC(=O)Nc1ccc(C(F)(F)F)cc1Cl` (single isomer, unassigned) [I-96, N-(2-chloro-4-(trifluoromethyl)phenyl)-2-(2-(dimethylamino)-6-ethyl-7-(4-(5-hydroxy-6-methylpyrimidine-4-carbonyl)-3-(methoxymethyl)piperazin-1-yl)-8-oxopyrido[2,3-b]pyrazin-5(8H)-yl)acetamide], in assay [1], the IC50 lay in the range of 5 to 50 nM. In assay [2], the EC50 is > 5000 nM.

Turning to `CCc1c(N2CCN(C(=O)c3ncnc(C)c3O)[C@@H]3CC[C@H]32)c(=O)c2nc(N(C)C3CC3)cnc2n1CC(=O)Nc1ccc(C(F)(F)F)cc1Cl` (single isomer, unassigned) [I-119, N-(2-chloro-4-(trifluoromethyl)phenyl)-2-(2-(cyclopropyl(methyl)amino)-6-ethyl-7-(5-(5-hydroxy-6-methylpyrimidine-4-carbonyl)-2,5-diazabicyclo[4.2.0]octan-2-yl)-8-oxopyrido[2,3-b]pyrazin-5(8H)-yl)acetamide], the IC50 in assay [1] fell in the range of 5 to 50 nM. For the same molecule, the EC50 in assay [2] (Homo sapiens, HCT-116, 24 h) was < 500 nM.

`CCc1c(N2CCN(C(=O)c3ncnc(C)c3O)[C@@H]3CC[C@H]32)c(=O)c2nc(N(C)C3CC3)cnc2n1CC(=O)Nc1ccc(C(F)(F)F)cc1Cl` (single isomer, unassigned) [I-169, N-[2-chloro-4-(trifluoromethyl)phenyl]-2-{2-[cyclopropyl(methyl)amino]-6-ethyl-7-[-5-(5-hydroxy-6-methylpyrimidine-4-carbonyl)-2,5-diazabicyclo[4.2.0]octan-2-yl]-8-oxo-5H,8H-pyrido[2,3-b]pyrazin-5-yl}acetamide]: the IC50 in assay [1] lay within 5 to 50 nM. Besides, the EC50 in assay [2] was in the range of 500 to 2000 nM.

As for `CCc1c(N2CCN(C(=O)c3ncnc(C)c3O)[C@H]3CC[C@@H]32)c(=O)c2nc(NC)cnc2n1CC(=O)Nc1ccc(C(F)(F)F)cc1Cl` (single isomer, unassigned) [I-171, N-(2-chloro-4-(trifluoromethyl)phenyl)-2-(6-ethyl-7-(5-(5-hydroxy-6-methylpyrimidine-4-carbonyl)-2,5-diazabicyclo[4.2.0]octan-2-yl)-2-(methylamino)-8-oxopyrido[2,3-b]pyrazin-5(8H)-yl)acetamide], the IC50 in assay [1] was 50 to 100 nM. The EC50 in assay [2] was > 5000 nM.

As for `CCc1c(N2CCN(C(=O)c3ncnc(C)c3O)[C@@H]3CC[C@H]32)c(=O)c2nc(NC)cnc2n1CC(=O)Nc1ccc(C(F)(F)F)cc1Cl` (single isomer, unassigned) [I-172, N-(2-chloro-4-(trifluoromethyl)phenyl)-2-(6-ethyl-7-(5-(5-hydroxy-6-methylpyrimidine-4-carbonyl)-2,5-diazabicyclo[4.2.0]octan-2-yl)-2-(methylamino)-8-oxopyrido[2,3-b]pyrazin-5(8H)-yl)acetamide], the IC50 in assay [1] was ≤ 5 nM. Besides, in assay [2] (Homo sapiens, HCT-116, 24 h), the EC50 is < 500 nM.

With `CCc1c(N2CCN(C(=O)c3ncnc(C)c3O)C[C@@H]2C)c(=O)c2nc(N3CC[C@H]4C[C@H]43)cnc2n1CC(=O)Nc1ccc(C(F)(F)F)cc1Cl` (single isomer, unassigned) [I-192], the IC50 in assay [1] is ≤ 5 nM. For the same molecule, the EC50 in assay [2] (Homo sapiens, HCT-116, 24 h) is < 500 nM.

In the case of `CCc1c(N2CCN(C(=O)c3ncnc(C)c3O)[C@@H](C)[C@H]2C)c(=O)c2nc(N(C)C)cnc2n1CC(=O)Nc1ccc(C(F)(F)F)cc1Cl` (single isomer, unassigned) [I-196, N-(2-chloro-4-(trifluoromethyl)phenyl)-2-(2-(dimethylamino)-6-ethyl-7-(4-(5-hydroxy-6-methylpyrimidine-4-carbonyl)-2,3-dimethylpiperazin-1-yl)-8-oxopyrido[2,3-b]pyrazin-5(8H)-yl)acetamide], the IC50 in assay [1] was in the range of 5 to 50 nM. The EC50 in assay [2] (Homo sapiens, HCT-116, 24 h) lay within 500 to 2000 nM.

For `CCc1c(N2CCN(C(=O)c3ncnc(C)c3O)[C@H]3CCC[C@H]32)c(=O)c2nc(N(C)C)cnc2n1CC(=O)Nc1ccc(C(F)(F)F)cc1Cl` (single isomer, unassigned) [I-208, N-(2-chloro-4-(trifluoromethyl)phenyl)-2-(2-(dimethylamino)-6-ethyl-7-(4-(5-hydroxy-6-methylpyrimidine-4-carbonyl)octahydro-1H-cyclopenta[b]pyrazin-1-yl)-8-oxopyrido[2,3-b]pyrazin-5(8H)-yl)acetamide], the IC50 in assay [1] was in the range of 100 to 500 nM. The EC50 in assay [2] (Homo sapiens, HCT-116, 24 h) is > 5000 nM.

Take `CCc1c(N2CCN(C(=O)c3ncnc(C)c3O)[C@@H]3CCC[C@@H]32)c(=O)c2nc(N(C)C)cnc2n1CC(=O)Nc1ccc(C(F)(F)F)cc1Cl` (single isomer, unassigned) [I-209, N-(2-chloro-4-(trifluoromethyl)phenyl)-2-(2-(dimethylamino)-6-ethyl-7-(4-(5-hydroxy-6-methylpyrimidine-4-carbonyl)octahydro-1H-cyclopenta[b]pyrazin-1-yl)-8-oxopyrido[2,3-b]pyrazin-5(8H)-yl)acetamide]: in assay [1], the IC50 was 5 to 50 nM. Besides, the EC50 in assay [2] (Homo sapiens, HCT-116, 24 h) was < 500 nM.

For `CCc1c(N2CCN(C(=O)c3ncnc(C)c3O)[C@H]3CC[C@@H]32)c(=O)c2nc(N3CC[C@H]4C[C@H]43)cnc2n1CC(=O)Nc1ccc(C(F)(F)F)cc1Cl` (single isomer, unassigned) [I-219], the IC50 in assay [1] was ≤ 5 nM. Also, the EC50 in assay [2] (Homo sapiens, HCT-116, 24 h) was < 500 nM.

As for `CCc1c(N2CCN(C(=O)c3ncnc(C)c3O)[C@H]3CC[C@@H]32)c(=O)c2nc(N3CC[C@@H]4C[C@@H]43)cnc2n1CC(=O)Nc1ccc(C(F)(F)F)cc1Cl` (single isomer, unassigned) [I-220], in assay [1], the IC50 is ≤ 5 nM. In addition, the EC50 in assay [2] (Homo sapiens, HCT-116, 24 h) is < 500 nM.
